Source: patent US20240099214A1, “PLANT DEFENCE GENE EXPRESSION” (UPL Corporation Limited, priority 2021, published 2024)

How the values were obtained:
[1] = system: PR protein (gene 12, M69248.1); test: qRT-PCR expression of gene 12 in tomato leaves; type: in vivo, Tomato ecotype corbarino; design: key to RQ1 / RQ2 / RQ3 / RQ mean: relative expression normalized to a-tubulin housekeeping gene; conditions: for gene 12 (PR1 protein) expression: laminarin treatment group not specified
Method: (§1) Tomato ecotype “corbarino” reported to be susceptible to TSWV infection was used in the experiment. Plants were grown in pots in a climatic chamber with a photoperiod of 16/8 hour at 25° C.
(§2) The viral strain (TSWV PV PV-0393) was utilized in the experiment. The virus was mechanically inoculated and propagated on tomato “corbarino”. The inoculum was prepared in an ice-cooled mortar grounding 1 gr of infected tomato tissue in 10 ml of Na-phosphate buffer 0.01M. The fresh prepared inoculum was stored in ice before use. Tomato plants at BBCH16 were dusted with Carborundum 600 mesh and selected leaves were rubbed with some droplets of inoculum. After 5 min. plants were sprayed with sterile water to remove the excess of inoculum and preserve the cell turgor.
(§3) Four treatments were compared: i) Mock inoculated; ii) TSWV; iii) 0.25% Laminarin; iv) 0.25% Laminarin+TSWV. In the last treatment the virus was inoculated 24 hrs after the laminarin application.
(§4) Total RNA was extracted from systemic infected tomato leaves by using the Quick-RNA Plant Kit (Zymo Research) following the manufacturer instructions. The extractions were carried out using three plants after 12 h, 24 h, 48 h, 72 h, 7 days after inoculation. Leaves were instantly frozen in liquid nitrogen after cutting to avoid any deterioration of the sample as well as any defense reaction. The RNA concentration was quantified by measuring the absorbance at 260 nm using a Nanodrop 2000 (Thermofisher). The purity of all of the RNA samples was assessed at an absorbance ratio of OD260/280 and OD260/230, while its structural integrity was checked by agarose gel electrophoresis. Only high-quality RNA with OD 260/280 and OD 260/230>2 was used for subsequent steps. Single-stranded cDNA was synthesized from 1 μg of total RNA using an iScript™ Select cDNA Synthesis Kit and random hexamers as primers (Bio-Rad, Milan, Italy), according to the manufacturer's instructions. Three biological replicates were created from the 3 leaves collected to test 15 genes. Alpha tubulin was used as reference gene.
(§5) qPCR reactions were performed with BioRad (Applied Biosystems, Foster City, CA, USA) using SYBR R Green. Each reaction was performed in 20 μl containing 10 μl of 2× Power SYBR Green PCR Master Mix (Life Technologies), 0.2-0.3 μM primers and cDNA samples diluted 1:20. Each qPCR reaction was performed in triplicate. Reactions were run using the cycling parameter described previously (Reid et al., 2006) and the qPCR data were analyzed by the Ct method (Pfaffl, 2001). In order to analyze the qPCR data, a-tubulin gene was used as housekeeping to determine the relative expression level of the other genes analyzed in this work. For the determination of qPCR efficiency of each primer pairs, a standard curve was performed using the following cDNA dilutions: 1:4, 1:16, 1:64; 1:256 and 1:1024. Every measurement was made in triplicate. The corresponding qPCR efficiencies (E) were calculated for every primer pair with the software 7300 System SDS software (Applied Biosystems, Foster City, CA, USA) according to the equation E=(10−1/slope−1)×100 (Rutledge and Stewart, 2008).
(§6) The significance of the differences between the gene expressions levels were compared by one-way ANOVA (p=0.01) and the means were separated by Tukey post-hoc test using SPSS ver.26 ([…]).

[2] = system: Subtilisin-like protease-like (gene 9, Solyc01g087800.2); test: qRT-PCR expression of gene 9 in tomato leaves; type: in vivo, Tomato ecotype corbarino; design: key to RQ1 / RQ2 / RQ3 / RQ mean: relative expression normalized to a-tubulin housekeeping gene
Method: as §1, §2, §3, §4, §5, §6

[3] = Gene_12, 24 hr, treatment Laminarin
[4] = Gene_12, 24 hr, treatment Laminarin + virus
[5] = Gene_12, 48 hr, treatment Laminarin
[6] = Gene_12, 48 hr, treatment Laminarin + virus
[7] = Gene_12, 72 hr, treatment Laminarin
[8] = Gene_12, 72 hr, treatment Laminarin + virus

## laminarin
[1]; 12 hr, Laminarin + virus
  RQ1: 10.097
  RQ2: 0.9948
  RQ3: 11.722
  RQ mean: 10.589
[1]; 12 hr, Laminarin alone
  RQ1: 0.9616
  RQ2: 11.039
  RQ3: 10.693
  RQ mean: 10.449
[1]; 48 hr post treatment, not statistically significant
  gene 12 (PR1 protein) expression: highly overexpressed
[1]; 72 hr, statistically significant
  gene 12 (PR1 protein) expression: overexpression of gene 12 is slightly reduced
[1]; 72 hr, tomato
  activation of systemic acquired resistance (SAR), inferred from gene 12 overexpression: activate the SAR
[1]; [3]
  RQ1: 11.678
  RQ2: 11.217
  RQ3: 10.555
  RQ mean: 11.150
[1]; [4]
  RQ1: 0.9321
  RQ2: 11.344
  RQ3: 11.191
  RQ mean: 10.619
[1]; [5]
  RQ1: 46.753
  RQ3: 31.171
  RQ mean: 60.670
[1]; [6]
  RQ1: 42.751
  RQ2: 56.022
  RQ3: 37.918
  RQ mean: 45.564
[1]; [7]
  RQ1: 44.543
  RQ2: 23.924
  RQ3: 31.675
  RQ mean: 33.381
[1]; [8]
  RQ1: 36.333
  RQ2: 29.356
  RQ3: 21.584
  RQ mean: 29.091
[2]; 12 hr, Laminarin + virus
  RQ1: 0.9838
  RQ2: 0.8556
  RQ3: 10.797
  RQ mean: 0.9730
[2]; 12 hr, Laminarin alone
  RQ1: 0.8527
  RQ2: 0.8398
  RQ3: 10.240
  RQ mean: 0.9055
[2]; 24 hr, Laminarin + virus
  RQ1: 0.8394
  RQ2: 10.098
  RQ3: 11.565
  RQ mean: 10.019
[2]; 24 hr, Laminarin alone
  RQ1: 13.867
  RQ2: 0.9303
  RQ3: 10.466
  RQ mean: 11.212
[2]; 48 hr, 0.25% laminarin + TSWV inoculated 24 hrs later
  gene 9 expression compared to TSWV treatment: inverted
[2]; 48 hr, 0.25% laminarin alone
  gene 9 expression compared to TSWV treatment: inverted
[2]; 48 hr, Laminarin + virus
  RQ1: 15.088
  RQ2: 17.637
  RQ3: 13.474
  RQ mean: 15.400
[2]; 48 hr, Laminarin alone
  RQ1: 16.481
  RQ2: 15.436
  RQ3: 13.847
  RQ mean: 15.255
[2]; 72 hr, Laminarin + virus
  RQ1: 0.9998
  RQ2: 10.127
  RQ3: 0.9578
  RQ mean: 0.9901
[2]; 72 hr, Laminarin alone
  RQ1: 16.204
  RQ2: 0.7923
  RQ3: 18.354
  RQ mean: 14.160
[2]; 72 hr, after the treatment with laminarin
  gene 9 expression: no clear overexpression
